The target of this test is Potassium voltage-gated channel subfamily KQT member 2 (Rattus norvegicus, UniProt O88943). Kind of test: KCNQ2 channel potentiators, dose response, mechanism study for KCNQ2 potentiator project, cell-based, automated electrophysiology (AID 2603).

From BindingDB's records for doi:10.7270/Q20000JS (Johns Hopkins Ion Channel Center, 2010) come the findings set out here.

pEC50: −log10 of the molar value.

Chain of Potassium voltage-gated channel subfamily KQT member 2 (O88943 whole entry): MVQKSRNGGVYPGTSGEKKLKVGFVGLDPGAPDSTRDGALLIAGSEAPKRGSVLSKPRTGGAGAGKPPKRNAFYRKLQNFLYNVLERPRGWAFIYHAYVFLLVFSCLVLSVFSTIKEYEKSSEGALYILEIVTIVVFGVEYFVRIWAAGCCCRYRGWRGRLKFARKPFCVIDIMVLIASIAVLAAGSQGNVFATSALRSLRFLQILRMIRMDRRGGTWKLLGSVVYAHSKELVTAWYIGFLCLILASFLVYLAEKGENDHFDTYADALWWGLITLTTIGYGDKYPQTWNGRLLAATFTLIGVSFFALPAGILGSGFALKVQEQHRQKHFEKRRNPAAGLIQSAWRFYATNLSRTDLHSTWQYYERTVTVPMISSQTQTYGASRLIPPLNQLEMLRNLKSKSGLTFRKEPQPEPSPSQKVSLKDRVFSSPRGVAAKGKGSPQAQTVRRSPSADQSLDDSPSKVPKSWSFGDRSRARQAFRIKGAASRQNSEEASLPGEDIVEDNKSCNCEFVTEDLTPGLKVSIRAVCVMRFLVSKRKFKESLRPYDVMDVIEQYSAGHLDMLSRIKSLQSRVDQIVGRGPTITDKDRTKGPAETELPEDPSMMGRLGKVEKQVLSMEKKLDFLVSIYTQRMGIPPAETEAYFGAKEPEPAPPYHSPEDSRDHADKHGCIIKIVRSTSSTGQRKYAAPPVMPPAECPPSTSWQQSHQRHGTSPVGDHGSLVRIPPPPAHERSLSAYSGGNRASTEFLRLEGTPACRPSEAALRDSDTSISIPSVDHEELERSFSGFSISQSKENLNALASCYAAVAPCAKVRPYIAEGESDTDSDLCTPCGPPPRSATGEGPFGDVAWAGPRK

Usually pEC50 stands for the EC50 on a negative log10 scale, so that one unit is a factor of ten. As for `CC(C)N1C(=O)C(=NNc2ccc(Cl)c(C(=O)O)c2)c2ccccc21` [MLS000773916], the pEC50 was 5.43.

For `CC1=NC(=O)NC(c2cccc(O)c2)C1C(=O)OC1CCCCCCC1` (configuration not stated) [SMR000111748], the pEC50 is 3.27.
